Ends that are not written are not given here. Peptide text beside a SMILES is read from it.

Sequence of angiotensin-converting enzyme (ACE) (P12821 30-1306, species assumed): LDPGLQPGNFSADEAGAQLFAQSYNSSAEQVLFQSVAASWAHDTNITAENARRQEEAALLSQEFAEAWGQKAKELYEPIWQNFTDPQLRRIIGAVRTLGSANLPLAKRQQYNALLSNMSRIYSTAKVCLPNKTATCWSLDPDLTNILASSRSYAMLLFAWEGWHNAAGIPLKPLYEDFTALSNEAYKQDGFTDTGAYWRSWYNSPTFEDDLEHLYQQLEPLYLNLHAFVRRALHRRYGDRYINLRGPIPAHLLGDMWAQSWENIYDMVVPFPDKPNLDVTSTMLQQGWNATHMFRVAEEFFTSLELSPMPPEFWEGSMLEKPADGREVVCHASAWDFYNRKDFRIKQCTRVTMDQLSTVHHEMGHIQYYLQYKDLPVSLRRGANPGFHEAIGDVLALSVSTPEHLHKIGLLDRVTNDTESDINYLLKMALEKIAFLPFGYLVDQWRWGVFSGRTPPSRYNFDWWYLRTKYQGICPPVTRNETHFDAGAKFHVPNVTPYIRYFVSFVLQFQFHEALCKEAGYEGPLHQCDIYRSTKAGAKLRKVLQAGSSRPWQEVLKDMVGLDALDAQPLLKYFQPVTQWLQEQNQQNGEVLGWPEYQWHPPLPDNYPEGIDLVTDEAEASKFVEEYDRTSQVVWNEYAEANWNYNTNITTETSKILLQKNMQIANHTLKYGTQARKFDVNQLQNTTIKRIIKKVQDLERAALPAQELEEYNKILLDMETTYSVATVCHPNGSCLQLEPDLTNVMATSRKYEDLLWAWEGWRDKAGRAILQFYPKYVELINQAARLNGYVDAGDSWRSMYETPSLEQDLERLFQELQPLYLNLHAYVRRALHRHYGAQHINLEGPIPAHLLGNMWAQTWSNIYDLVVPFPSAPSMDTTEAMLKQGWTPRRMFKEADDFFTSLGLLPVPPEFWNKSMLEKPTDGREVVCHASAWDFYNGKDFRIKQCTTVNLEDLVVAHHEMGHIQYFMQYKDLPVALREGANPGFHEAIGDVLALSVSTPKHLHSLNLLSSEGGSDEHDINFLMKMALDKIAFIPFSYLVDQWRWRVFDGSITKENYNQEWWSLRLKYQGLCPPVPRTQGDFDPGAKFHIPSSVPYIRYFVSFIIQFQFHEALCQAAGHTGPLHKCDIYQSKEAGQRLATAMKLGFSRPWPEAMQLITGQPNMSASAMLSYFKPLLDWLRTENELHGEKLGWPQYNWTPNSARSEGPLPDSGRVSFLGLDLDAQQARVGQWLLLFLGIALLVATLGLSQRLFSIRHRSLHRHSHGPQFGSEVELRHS

Tested on in one data set: not listed separately
Briefly: Water solubility of synthetic peptide. Conditions: reason why the ACE activity was not determined. Type of data set: physicochemical.
Take “LQFCCY [SEQ No.17, synthetic peptide LQFCCY from olive oil extract]”: the Water solubility entry is on record as “not water soluble”.

Another data set deals with spontaneously hypertensive rats (SHR). Briefly: Antihypertensive activity in SHR, tail-cuff SBP after acute oral administration. In kind it is in vivo, rat. Particulars: oral Captopril 50 mg/kg BW, at 24 h. From the text: The antihypertensive effect of synthetic peptides No. 1 (RDGGYCC), No. 2 (LEEFCC), No. 3 (HCGCNTH) and No. 4 (CCGNAVPQ) was studied on the systolic blood pressure (SBP) and diastolic blood pressure (DBP) using the spontaneously hypertensive rat (SHR) animal model of hypertension. The tail-cuff method was used to measure SBP and DBP [36] as described in [28]. We selected a dose of synthetic peptides in the range described in previous studies of antihypertensive effects of peptides with ACE inhibitory activity. SBP and DBP data was always collected by the same technician. A period of training of two weeks was set to allow the animals to be habituated to this methodology. Forty-eight male SHR (age 19–21 weeks) were used. The average BW of the animals was 322.0 ± 6.0 g. The synthetic peptides were dissolved in water and were administered orally to the animals (about 1 mL per animal). The ACE inhibitor drug Captopril (Sigma, St. Louis, MO, USA) was used as a positive control and water was used as a negative control. The SHR were distributed randomly into 6 study groups (n = 8 per group) and received an oral dose of one of the four synthetic peptides (25 mg/kg of BW), or a dose of Captopril (50 mg/kg of BW) or water (1 mL). SBP and DBP were measured in the rats at baseline (time 0) and at 2, 4, 8 and 24 h post-administration of the peptides or controls. […]
As to `C[C@H](CS)C(=O)N1CCC[C@H]1C(=O)O` [Captopril], the “Time course of the antihypertensive effect (SBP)” value is given as “returned to basal levels”.

The target of another data set is angiotensin-converting enzyme (ACE) (Homo sapiens, UniProt P12821). Briefly: ACE inhibitory activity in vitro (IC50). In kind it is biochemical. Conditions: chemically synthesised peptides, method of ref 35 with modifications of ref 28, mean ± SD, SD, read-out: ACEi Activity IC50 (µm) ± SD. An excerpt:
The ACE inhibitory activity of the samples was studied using the methodology specified in [35], with some modifications. The ACE inhibitory activity is shown as IC50, or the concentration needed to inhibit the activity of the enzyme by 50%.
In the case of `N=C(N)NCCC[C@H](N)C(=O)N[C@@H](CC(=O)O)C(=O)NCC(=O)NCC(=O)N[C@@H](Cc1ccc(O)cc1)C(=O)N[C@@H](CS)C(=O)N[C@@H](CS)C(=O)O` [SEQ No.1] (H-RDGGYCC-OH), the 50% inhibitory concentration (IC50) is 0.84 ± 0.02 µM.
On the same count and under the same terms, as for `CC(C)C[C@H](N)C(=O)N[C@@H](CCC(=O)O)C(=O)N[C@@H](CCC(=O)O)C(=O)N[C@@H](Cc1ccccc1)C(=O)N[C@@H](CS)C(=O)N[C@@H](CS)C(=O)O` [SEQ No.2] (H-LEEFCC-OH), the figure is 1.85 ± 0.16 µM; as for `C[C@@H](O)[C@H](NC(=O)[C@H](CC(N)=O)NC(=O)[C@H](CS)NC(=O)CNC(=O)[C@H](CS)NC(=O)[C@@H](N)Cc1c[nH]cn1)C(=O)N[C@@H](Cc1c[nH]cn1)C(=O)O` [SEQ No.3] (H-HCGCNTH-OH), 2.58 ± 0.26 µM; as for `CC(C)[C@H](NC(=O)[C@H](C)NC(=O)[C@H](CC(N)=O)NC(=O)CNC(=O)[C@H](CS)NC(=O)[C@@H](N)CS)C(=O)N1CCC[C@H]1C(=O)N[C@@H](CCC(N)=O)C(=O)O` [SEQ No.4] (H-CCGNAVPQ-OH), 39.6 ± 2.09 µM.
The same measure, in the same setting: as for `CC(C)C[C@H](NC(=O)[C@H](CC(=O)O)NC(=O)[C@H](CS)NC(=O)CNC(=O)[C@H](CS)NC(=O)CNC(=O)[C@@H](N)Cc1ccc(O)cc1)C(=O)N1CCC[C@H]1C(=O)O` [SEQ No.5] (H-YGCGCDLP-OH), the figure is 3.51 ± 0.21 µM; as for `CC(C)C[C@H](NC(=O)[C@@H]1CCCN1C(=O)[C@H](CC(=O)O)NC(=O)[C@H](CS)NC(=O)CNC(=O)[C@H](CS)NC(=O)CNC(=O)[C@@H](N)Cc1ccc(O)cc1)C(=O)O` [SEQ No.6] (H-YGCGCDPL-OH), 1.64 ± 0.02 µM; as for `C[C@H](NC(=O)[C@H](C)NC(=O)[C@@H](N)Cc1c[nH]c2ccccc12)C(=O)NCC(=O)N[C@@H](Cc1ccc(O)cc1)C(=O)N[C@@H](CS)C(=O)N[C@@H](CS)C(=O)O` [SEQ No.8] (H-WAAGYCC-OH), 6.88 ± 0.3 µM.
With EECHAH [SEQ No.9], the half-maximal inhibitory concentration (IC50) came to 11.8 ± 1.99 µM.
For LALAPTN [SEQ No.14], the IC50 turned out to be 135 ± 13.5 µM.
For the compound LALSAPVP [SEQ No.16], the half-maximal inhibitory concentration (IC50) came out at 305 ± 10.9 µM.
Same read-out and setting: the figure for LEFTSSY [SEQ No.12] is 107 ± 14.7 µM.
Same read-out and setting: as for RPVPPVF [SEQ No.15], the figure is 230 ± 36.5 µM.
On the same count and under the same terms, the figure for YMHCYF [SEQ No.7] is 3.2 ± 0.23 µM.

The data set is the same for the next values; noted with them: chemically synthesised peptides, method of ref 35 with modifications of ref 28, mean ± SD, read-out: ACEi Activity IC50 (µm) ± SD.
As to EAPGGYDD [SEQ No.19], the half-inhibitory concentration (IC50) was more than 405 µM.
With KRRPPTT [SEQ No.18], the IC50 is more than 390 µM.
As to MSMAPY [SEQ No.23], the IC50 was more than 480 µM.
YEAYPS [SEQ No.21]: the IC50 is more than 460 µM.

A further data set relates to SHR.
Assay: not given
Conditions: bovine casein-derived peptide; cited from earlier work. An excerpt: The study of ACE inhibitor peptides in foods is a very active area of research and there are a few available data bases with information on peptide sequences and biological activity. We used the BIOPEP data base to assist with our selection of peptides because it uses previous published research providing information about the number of ACE inhibitor motifs of a peptide sequence and calculates the peptide's theoretical activity. Apart from the ACE inhibitory activity, the data base detected additional potential activities of our selected peptides, including antioxidant (Nos. 9 and 11), anti-th ... || The process of development of high blood pressure in humans presents analogies with the development of hypertension in SHR. For this reason, the SHR model has been extensively used in the evaluation of food peptides with antihypertensive potential. […] It contains four dipeptides (DG, GG, GY, DG) with previously reported activity, h ...
In the case of KVLPVPQ, the “SBP reducing effect in SHR” value is given as “high SBP reducing effect”.

The subject of a further data set is ACE.
Assay: not given
Particulars: bovine casein-derived peptide; cited from earlier work. From the text:
The process of development of high blood pressure in humans presents analogies with the development of hypertension in SHR. For this reason, the SHR model has been extensively used in the evaluation of food peptides with antihypertensive potential. […] It contains four dipeptides (DG, GG, GY, DG) with previously reported activity, h ...
On to KVLPVPQ, for which the “In vitro ACE inhibitory activity” value is listed as “low in vitro ACE inhibitory activity”.

These data come from PMC7019360, “Antihypertensive Effects of Virgin Olive Oil (Unfiltered) Low Molecular Weight Peptides with ACE Inhibitory Activity in Spontaneously Hypertensive Rats” (Nutrients, 2020).
